Experimental data taken from patent US12280026B2, “Use of repirinast in the prophylaxis or treatment of renal fibrosis or kidney disease” (ALGERNON PHARMACEUTICALS INC., priority 2018, dated 2025).
“Also recorded” adds a separate entry of the source. Marks after values point to notes of the source that are not given here.

Tests used:
[1] = Example 1: UUO mice, mean body weight change following surgery; assay type: in vivo; settings: Example 1, mostly post-surgical day 14, male C57BL/6 mice, PO QD days 1-14, doses of Table 1
Method: Male 9-12 week old C57BL/6 mice of 23-25 grams body weight were used. All mice were acclimated for a minimum of 5 days prior to the start of the study and housed individually in microisolators throughout the study in a 12:12 light-dark cycle on a standard maintenance mouse chow diet (Harlan Teklad 2018) with food and water given ad libitum. Prior to surgery, all mice were weighed for baseline body weight.
The UUO surgical intervention was performed according to previously described methods known in the art (Le Meur Y et al., Macrophage accumulation at a site of renal inflammation is dependent on the M-CSF/c-fms pathway, J Leukocyte Biol., 72:530-537; 2002).
All mice were first anesthetized by intraperitoneal injection with a rodent cocktail (ketamine 10 mg/mL and Xyaline 1 mg/mL) in normal saline (10 μL/g body weight). Pedal reflex and movement of the vibrissae were used to determine the state of unconsciousness. A state of unconsciousness was confirmed after a period of about 5 minutes in all animals. All mice were then shaved on the left side of the abdomen. The shaved area was first swabbed with iodine and then swabbed with alcohol. A vertical incision was made through the skin with a #22 scalpel and the skin was then retracted. A further incision of about 2.5 cm was then made through the peritoneum avoiding any major blood vessels. The peritoneum was then retracted and the left kidney was exposed.
The left kidney was then brought to the surface by hooking the ureter directly beneath the kidney with sterile forceps and gently manipulating the kidney upward. The ureter was ligated at two points directly below the kidney with 5-0 surgical silk with excess suture cut away and discarded post-ligation. The kidney was then gently placed back to its correct anatomical position and the abdomen was lavaged with 1 mL sterile saline to replenish fluid loss. The peritoneum and then skin were sutured with 5-0 Mersilene, and the incision site was gently wiped with iodine. All mice were then placed individually in clean cages that were set on top of a thermal blanket until recovery at about 30-60 minutes later. In some examples, sham surgery was performed as a control by following all steps of the UUO surgical intervention procedure except ligation.
Following surgery, the mice were divided into 14 individual study groups of 8 mice each and, following post-surgical recovery, administered a once-daily oral treatment for 14 days. The mice in 12 of the 14 study groups (hereafter known as “treatment groups”) had all received the UUO surgical ligation and were treated individually with a distinct pharmacologic compound as set out in Table 1. The mice in 2 of the 14 study groups were treated individually with a pharmaceutically acceptable vehicle with no active ingredient. The pharmaceutically acceptable vehicle in all groups was 0.5% carboxymethyl cellulose (CMC). All mice were sacrificed with CO2 on post-surgical day 15.
The dose selected for the animal studies was determined by taking the maximum known human daily dose, dividing by the average weight of an adult (˜60-70 kg) to get a human mg/kg dose. […]
Body weight: The body weights were measured on days 1, 2, 5, 8, 10 and 14 using a laboratory balance.
Body weights were measured on post-surgical days 1, 2, 5, 8, 10 and 14 as previously described. The mean body weight change of each study group was calculated using the body weight average of all mice in each study group.

[2] = Example 2: UUO mice, mean body weight change following surgery; assay type: in vivo, C57BL/6 mice; settings: for Mean Body Weight Change Following Surgery, Day 1 / Mean Body Weight Change Following Surgery, Day 4 / Mean Body Weight Change Following Surgery, Day 7 / Mean Body Weight Change Following Surgery, Day 10 / Mean Body Weight Change Following Surgery, Day 14: UUO, female C57BL/6 mice, PO QD days 1-14, mg/kg: Telmisartan 3, Bemithyl 200, Repirinast 30, Telmisartan+Bemithyl 3+200, Telmisartan+Repirinast 3+30, Cenicriviroc 40, Bromantane 40; for Body weight course after surgery, in words: Example 2, mg/kg PO QD: Repirinast 30, Bemithyl 200, Bromantane 40, Telmisartan+Bemithyl 3+200
Method: (§1) In this example, healthy young female C57BL/6 mice were used for the study. At the commencement of the study, mice were between 9-12 weeks of age, weighing 23-25 g. All the mice were obtained from Charles River Laboratories.
(§2) The mice were maintained in a controlled environment with a temp 70-72° F., humidity 30-70%, with a photo cycle of 12 hours of light and 12 hours of dark. They were provided with Harlan Teklad 2018 standard maintenance mouse chow diet and drinking water ad libitium.
(§3) After five days of acclimatization, the mice were grouped according to their body weight. There were ten groups of ten mice each. Nine groups of ten mice each underwent UUO as described above and the other group of ten mice underwent a sham procedure to serve as a no-surgery control.
(§4) Following surgery, the mice were divided into 10 individual study groups of 10 mice each and, following post-surgical recovery, administered a once-daily oral treatment for 14 days. The mice in 8 of the 10 study groups had all received the UUO surgical ligation and were treated individually with a distinct pharmacologic compound as set out in Table 6. The mice in 2 of the 10 study groups were treated individually with a pharmaceutically acceptable vehicle with no active ingredient. The pharmaceutically acceptable vehicle in all groups was 0.5% carboxymethyl cellulose (CMC). All mice were sacrificed with CO2 on post-surgical day 15.
(§5) The dose selected for the animal studies was determined by taking the maximum known human daily dose, dividing by the average weight of an adult (˜60-70 kg) to get a human mg/kg dose. That number was multiplied by 12 to convert to a mouse dose based on conventional dosing tables. See Nair and Jacob, J Basic Clin Pharm March 2016-May 2016, 7(2):27-31.
Body weight: The body weights were measured on days 1, 4, 7, 10 and 14 using a laboratory balance.
Body weights were measured on post-surgical days 1, 4, 7, 10 and 14 as previously described. The mean body weight change of each study group was calculated using the body weight average of all mice in each study group.

[3] = test system: C57BL/6 mice with UUO surgical ligation; assay: Example 2: UUO mice, kidney weight evaluation; assay type: in vivo; settings: for Excised Left Kidney: ligated kidney; for Right Kidney (g): unligated kidney
Method: as §1, §2, §3, §4, §5
Kidney weight: The UUO was then examined in situ to ensure that the surgical ligation ties remained patent. Both the ligated (UUO) and non-ligated kidneys were removed for analysis. Weights of both kidneys were measured using a laboratory balance.
(§6) The data are presented as the mean obtained from Microsoft Excel or GraphPad Prism version 5.00 for Windows (GraphPad Software, San Diego California USA). Data were analyzed using two-way ANOVA using Bonferroni and Tamhane post-tests. Differences between groups were considered significant at p<0.05.
Kidney Weight Evaluation: Kidney weight, which indicates functional and pathological changes in the kidney, was evaluated by measuring the weight of both the ligated (UUO) and non-ligated kidneys as previously described. The ligated and non-ligated kidney weights of each study group consisted of the respective kidney weight averages of all mice in each study group.

[4] = test system: C57BL/6 mice with UUO surgical ligation; assay: Example 2: UUO mice, renal function evaluation (plasma BUN, creatinine); assay type: in vivo; settings: for Level of BUN compared to vehicle or other agents, in words: Example 2, mg/kg PO QD: Telmisartan 3, Bemithyl 200, Repirinast 30, Telmisartan+Bemithyl 3+200, Telmisartan+Repirinast 3+30, Cenicriviroc 40, Bromantane 40; for BUN / Creatinine: plasma at sacrifice day 15, group mean, UUO, female C57BL/6 mice, PO QD days 1-14, mg/kg: Telmisartan 3, Bemithyl 200, Repirinast 30, Telmisartan+Bemithyl 3+200, Telmisartan+Repirinast 3+30, Cenicriviroc 40, Bromantane 40; for BUN: * significant vs vehicle Bonferroni, # Tamhane (p<0.05)
Method: as §1, §2, §3, §4, §5
Serum collection: A blood sample was then collected from all mice and plasma analyzed for urea nitrogen and creatinine. Plasma was stored at −80° C. for possible future analysis.
as §6
Renal Function Evaluation: Renal function and disease progression was evaluated by BUN (blood urea nitrogen) as previously described. The BUN of each study group consisted of the BUN average of all mice in each study group.

[5] = ligated kidney drained, group mean, UUO, female C57BL/6 mice, PO QD days 1-14, mg/kg: Telmisartan 3, Bemithyl 200, Repirinast 30, Telmisartan+Bemithyl 3+200, Telmisartan+Repirinast 3+30, Cenicriviroc 40, Bromantane 40
[6] = group mean, UUO, female C57BL/6 mice, PO QD days 1-14, mg/kg: Telmisartan 3, Bemithyl 200, Repirinast 30, Telmisartan+Bemithyl 3+200, Telmisartan+Repirinast 3+30, Cenicriviroc 40, Bromantane 40

Structure (SMILES) | Mean body weight change, comparison with control groups, in words [1] | Mean Body Weight Change Following Surgery, Day 1 [2] | Mean Body Weight Change Following Surgery, Day 4 [2] | Mean Body Weight Change Following Surgery, Day 7 [2] | Mean Body Weight Change Following Surgery, Day 10 [2] | Mean Body Weight Change Following Surgery, Day 14 [2] | Body weight course after surgery, in words [2] | Weight of the drained left kidney compared to the vehicle group, in words ([3]; Example 2, Telmisartan 3 + Repirinast 30 mg/kg, Bemithyl 200 mg/kg) | Drained Left Kidney [3, 5] | Excised Left Kidney [3, 6] | Right Kidney (g) [3, 6] | Level of BUN compared to vehicle or other agents, in words [4] | BUN [4] | Creatinine [4] | Drained Left Kidney (g) [3, 5]
CCSc1nc2ccccc2[nH]1 [Bemithyl, 2-Ethylsulfanyl-1H-benzoimidazole] | even greater than that of the sham surgery control group; also recorded: appeared to reverse the negative effects of UUO on body weight gain | 0 g | 0.16 g | 0.16 g | 0.36 g | 0.54 g | no initial decrease in body weight; also recorded: even greater than that of the sham surgery control group; also recorded: appeared to reverse the negative effects of UUO on body weight gain | a similar effect was observed | 0.1565 g | 0.398 g | 0.1333* g | significant reductions in the level of BUN compared to vehicle; also recorded: reduction in BUN compared to vehicle | 19.4* mg/dL | 0.20 mg/dL | –
Brc1ccc(NC2C3CC4CC(C3)CC2C4)cc1 (centres unmarked) [Bromantane, N-(4-Bromophenyl)adamantan-2-amine] | comparable to that of the surgery vehicle control group | 0 g | 0.11 g | 0.36 g | 0.15 g | 0.55 g | no initial decrease in body weight; also recorded: appeared to reverse the negative effects of UUO on body weight gain | – | 0.1775 g | 0.3995 g | 0.143* g | significant reductions in the level of BUN compared to vehicle; also recorded: most effective compound tested; also recorded: superior to Telmisartan; also recorded: reduction in BUN compared to vehicle; also recorded: highest reductions in both fibrosis and BUN levels | 17.3** mg/dL | 0.20 mg/dL | –
CCCc1nc2c(C)cc(-c3nc4ccccc4n3C)cc2n1Cc1ccc(-c2ccccc2C(=O)O)cc1 [Telmisartan, 2-(4-{[4-Methyl-6-(1-methyl-1H-1,3-benzodiazol-2-yl)-2-propyl-1H-1,3-benzodiazol-1-yl]methyl}phenyl)benzoic acid] | – | 0 g | -0.24 g | 0.39 g | 0.45 g | 0.58 g | – | – | – | 0.411 g | 0.1263* g | did not reduce levels of BUN; also recorded: did not show significant reductions | 23.5 mg/dL | 0.20 mg/dL | 0.1853* g
